Measured values taken from patent US4619925A, “3-Propenyl cephalosporin derivatives” (priority 1985, dated 1986).
≈ marks a conversion by molar mass, not a printed value. Where two headings read alike, the source gives them in different places.

Legend:
[1] = test system: K. pneumoniae A20346; experiment: MIC, agar dilution technique (Mueller-Hinton Agar); assay type: cell-based; conditions: Klebsiella pneumoniae; K. pneumoniae A20346; Gn-Ib, ampicillin and cephalothin resistant; read-out: Minimum Inhibitory Concentration
From the text: (§1) Each of these groups of organisms is constituted of five individual strains of microorganism. The Gp-Ia organisms are Gram-positive staphylococci which are sensitive to penicillin. The Gp-Ib organisms are Gram-positive staphylococci which are resistant to penicillin and produce penicillinase. The Gn-Ia organisms are Gram-negative bacteria which are sensitive to ampicillin and cephalothin. The Gn-Ib organisms are Gram-negative bacteria which are resistant to ampicillin and cephalothin.

[2] = test system: S. aureus A9602; experiment: MIC, agar dilution technique (Mueller-Hinton Agar); assay type: cell-based; conditions: Staphylococcus aureus; S. aureus A9602; Gp-Ib, penicillin resistant; read-out: Minimum Inhibitory Concentration
From the text: as §1

[3] = test system: E. coli A15148; experiment: MIC, agar dilution technique (Mueller-Hinton Agar); assay type: cell-based; conditions: Escherichia coli; E. coli A15148; Gn-Ib, ampicillin and cephalothin resistant; read-out: Minimum Inhibitory Concentration
From the text: as §1

[4] = test system: S. aureus Russell; experiment: MIC, agar dilution technique (Mueller-Hinton Agar); assay type: cell-based; conditions: Staphylococcus aureus, read-out: Minimum Inhibitory Concentration
From the text: as §1

[5] = test system: S. aureus Smith; experiment: MIC, agar dilution technique (Mueller-Hinton Agar); assay type: cell-based; conditions: Staphylococcus aureus, Gp-Ia, penicillin sensitive, read-out: Minimum Inhibitory Concentration
From the text: as §1

[6] = test system: S. aureus Terajima; experiment: MIC, agar dilution technique (Mueller-Hinton Agar); assay type: cell-based; conditions: Staphylococcus aureus, Gp-Ia, penicillin sensitive, read-out: Minimum Inhibitory Concentration
From the text: as §1

[7] = test system: K. pneumoniae D11; experiment: MIC, agar dilution technique (Mueller-Hinton Agar); assay type: cell-based; conditions: Klebsiella pneumoniae; K. pneumoniae D11; Gn-Ia, ampicillin and cephalothin sensitive; read-out: Minimum Inhibitory Concentration
From the text: as §1

[8] = test system: S. aureus A9601; experiment: MIC, agar dilution technique (Mueller-Hinton Agar); assay type: cell-based; conditions: Staphylococcus aureus; S. aureus A9601; Gp-Ia, penicillin sensitive; read-out: Minimum Inhibitory Concentration
From the text: as §1

[9] = test system: E. coli A20341-1; experiment: MIC, agar dilution technique (Mueller-Hinton Agar); assay type: cell-based; conditions: Escherichia coli, A203411; E. coli A20341-1; Gn-Ib, ampicillin and cephalothin resistant; read-out: Minimum Inhibitory Concentration
From the text: as §1

[10] = test system: S. aureus A9497; experiment: MIC, agar dilution technique (Mueller-Hinton Agar); assay type: cell-based; conditions: Staphylococcus aureus, Gp-Ia, penicillin sensitive, read-out: Minimum Inhibitory Concentration
From the text: as §1

[11] = test system: E. coli Juhl; experiment: MIC, agar dilution technique (Mueller-Hinton Agar); assay type: cell-based; conditions: Escherichia coli; E. coli Juhl; Gn-Ia, ampicillin and cephalothin sensitive; read-out: Minimum Inhibitory Concentration
From the text: as §1

[12] = test system: K. pneumoniae A20345; experiment: MIC, agar dilution technique (Mueller-Hinton Agar); assay type: cell-based; conditions: Klebsiella pneumoniae, Gn-Ib, ampicillin and cephalothin resistant, read-out: Minimum Inhibitory Concentration
From the text: as §1

[13] = test system: P. mirabilis A9900; experiment: MIC, agar dilution technique (Mueller-Hinton Agar); assay type: cell-based; conditions: Proteus mirabilis; P. mirabilis A9900; Gn-Ia, ampicillin and cephalothin sensitive; read-out: Minimum Inhibitory Concentration
From the text: as §1

[14] = test system: S. aureus BX-1633-2; experiment: MIC, agar dilution technique (Mueller-Hinton Agar); assay type: cell-based; conditions: Staphylococcus aureus, BX16332, read-out: Minimum Inhibitory Concentration
From the text: as §1

[15] = test system: P. mirabilis A9554; experiment: MIC, agar dilution technique (Mueller-Hinton Agar); assay type: cell-based; conditions: Proteus mirabilis; P. mirabilis A9554; Gn-Ia, ampicillin and cephalothin sensitive; read-out: Minimum Inhibitory Concentration
From the text: as §1

[16] = test system: S. aureus A9534; experiment: MIC, agar dilution technique (Mueller-Hinton Agar); assay type: cell-based; conditions: Staphylococcus aureus, Gp-Ia, penicillin sensitive, read-out: Minimum Inhibitory Concentration
From the text: as §1

[17] = test system: E. coli A9660; experiment: MIC, agar dilution technique (Mueller-Hinton Agar); assay type: cell-based; conditions: Escherichia coli; E. coli A9660; Gn-Ia, ampicillin and cephalothin sensitive; read-out: Minimum Inhibitory Concentration
From the text: as §1

[18] = test system: S. aureus A15092; experiment: MIC, agar dilution technique (Mueller-Hinton Agar); assay type: cell-based; conditions: Staphylococcus aureus, Gp-Ib, penicillin resistant, read-out: Minimum Inhibitory Concentration
From the text: as §1

[19] = test system: S. aureus No. 193; experiment: MIC, agar dilution technique (Mueller-Hinton Agar); assay type: cell-based; conditions: Staphylococcus aureus, Gp-Ib, penicillin resistant, read-out: Minimum Inhibitory Concentration
From the text: as §1

[20] = test system: E coli RGN-823; experiment: MIC, agar dilution technique (Mueller-Hinton Agar); assay type: cell-based; conditions: Escherichia coli, RGN823, Gn-Ib, ampicillin and cephalothin resistant, read-out: Minimum Inhibitory Concentration
From the text: as §1

[21] = Mouse blood levels
From the text: Table 3 contains comparative blood level data for mice treated orally and intramuscularly with the hydroxyphenylglycyl derivatives.

[22] = Mouse urinary recovery; assay type: in vivo, mice; conditions: 20 mg/kg
[23] = test system: H. influenzae A22157; experiment: In vitro activity against fastidious bacteria; assay type: cell-based; conditions: Haemophilus influenzae, ampicillin-resistant (ABPC-R)
From the text: (§2) Table 5 contains comparative data for in vitro antibacterial activity against fastidious bacteria.

[24] = test system: H. influenzae A22483; experiment: In vitro activity against fastidious bacteria; assay type: cell-based; conditions: Haemophilus influenzae, A22483
From the text: as §2

[25] = test system: N. gonorrheae A20143; experiment: In vitro activity against fastidious bacteria; assay type: cell-based; conditions: N. gonorrheae A20143; read-out: MIC
From the text: as §2

[26] = test system: S. pneumoniae Type I; experiment: In vitro activity against fastidious bacteria; assay type: cell-based; conditions: Streptococcus pneumoniae; S. pneumoniae Type I; read-out: MIC
From the text: as §2

**Q.** Which results are given for `C/C=C\C1=C(C(=O)O)N2C(=O)C(NC(=O)[C@H](N)c3cccc(O)c3)[C@H]2SC1` (stereo partly drawn) [BMY-28272, 7-[(D)-2-amino-2-(3-hydroxyphenyl)acetamido]-3-[(Z)-1-propenyl]-3-cephem-4-carboxylic acid]?
**A.** MIC [1]: 50 µg/mL (≈ 128 µM); MIC [2]: 0.8 µg/mL (≈ 2.05 µM); MIC [3]: 25 µg/mL (≈ 64.2 µM); MIC [4]: 1.6 µg/mL (≈ 4.11 µM); MIC [5]: 0.4 µg/mL (≈ 1.03 µM); MIC [6]: 0.4 µg/mL (≈ 1.03 µM); MIC [7]: 0.8 µg/mL (≈ 2.05 µM); MIC [8]: 0.8 µg/mL (≈ 2.05 µM); MIC [9]: 12.5 µg/mL (≈ 32.1 µM); MIC [10]: 0.4 µg/mL (≈ 1.03 µM); MIC [11]: 1.6 µg/mL (≈ 4.11 µM); MIC [12]: 6.3 µg/mL (≈ 16.2 µM); MIC [13]: 0.8 µg/mL (≈ 2.05 µM); MIC [14]: 1.6 µg/mL (≈ 4.11 µM); MIC [15]: 0.8 µg/mL (≈ 2.05 µM); MIC [16]: 0.4 µg/mL (≈ 1.03 µM); MIC [17]: 0.8 µg/mL (≈ 2.05 µM); MIC [18]: 1.6 µg/mL (≈ 4.11 µM); MIC [19]: 1.6 µg/mL (≈ 4.11 µM); MIC [20]: 50 µg/mL (≈ 128 µM); AUC relative to BMY-28100 ([21]; 20 mg/kg intramuscularly): greater AUC value; T1/2 relative to BMY-28100 ([21]; 20 mg/kg intramuscularly): longer T1/2 than BMY-28100; AUC relative to BMY-28100 ([21]; 100 mg/kg orally): greater AUC value; T1/2 relative to BMY-28100 ([21]; 100 mg/kg orally): somewhat shorter T1/2 than BMY-28100; duration of blood levels relative to BMY-28100 ([21]; 100 mg/kg orally): longer duration of blood levels; antibiotic concentrations in the bloodstream ([21]; following oral administration, summary statement): prolonged antibiotic concentrations in the bloodstream following oral administration; concentration at 10 min ([21]; mouse, blood, im, 20 mg/kg): 20000 ng/mL; concentration at 20 min ([21]; mouse, blood, im, 20 mg/kg): 17000 ng/mL; concentration at 0.5 h ([21]; mouse, blood, im, 20 mg/kg): 17000 ng/mL; concentration at 40 min ([21]; mouse, blood, im, 20 mg/kg): 12000 ng/mL; concentration at 50 min ([21]; mouse, blood, im, 20 mg/kg): 11000 ng/mL; concentration at 1 h ([21]; mouse, blood, im, 20 mg/kg): 9400 ng/mL; concentration at 1.5 h ([21]; mouse, blood, im, 20 mg/kg): 4800 ng/mL; concentration at 2 h ([21]; mouse, blood, im, 20 mg/kg): 2600 ng/mL; AUC ([21]; mouse, blood, im, 20 mg/kg, 20 mg/kg i.m.): 20000 ng·h/mL; half-life ([21]; mouse, blood, im, 20 mg/kg, T 1/2, 20 mg/kg i.m.): 36 min; Cmax ([21]; mouse, blood, po, 20 mg/kg): 9600 ng/mL; concentration at 0.5 h ([21]; mouse, blood, po, 20 mg/kg): 7700 ng/mL; concentration at 1 h ([21]; mouse, blood, po, 20 mg/kg): 4200 ng/mL; concentration at 2 h ([21]; mouse, blood, po, 20 mg/kg): 1600 ng/mL; concentration at 3 h ([21]; mouse, blood, po, 20 mg/kg): 620 ng/mL; concentration at 4 h ([21]; mouse, blood, po, 20 mg/kg): 220 ng/mL; concentration at 5 h ([21]; mouse, blood, po, 20 mg/kg): 130 ng/mL; concentration at 6 h ([21]; mouse, blood, po, 20 mg/kg): 82 ng/mL; AUC ([21]; mouse, blood, po, 20 mg/kg, 20 mg/kg p.o.): 9700 ng·h/mL; AUC ([21]; mouse, blood, po, 20 mg/kg, 20 mg/kg p.o., another experiment (footnote)): 17000 ng·h/mL; half-life ([21]; mouse, blood, po, 20 mg/kg, T 1/2, 20 mg/kg p.o.): 51.6 min; half-life ([21]; mouse, blood, po, 20 mg/kg, T 1/2, 20 mg/kg p.o., another experiment (footnote)): 60 min; concentration at 0.5 h ([21]; mouse, blood, po, 100 mg/kg): 23000 ng/mL; concentration at 1 h ([21]; mouse, blood, po, 100 mg/kg): 22000 ng/mL; concentration at 2 h ([21]; mouse, blood, po, 100 mg/kg): 16000 ng/mL; concentration at 3 h ([21]; mouse, blood, po, 100 mg/kg): 10000 ng/mL; concentration at 4 h ([21]; mouse, blood, po, 100 mg/kg): 6300 ng/mL; concentration at 5 h ([21]; mouse, blood, po, 100 mg/kg): 3100 ng/mL; concentration at 6 h ([21]; mouse, blood, po, 100 mg/kg): 2800 ng/mL; concentration at 7 h ([21]; mouse, blood, po, 100 mg/kg): 2500 ng/mL; AUC ([21]; mouse, blood, po, 100 mg/kg, 100 mg/kg p.o.): 71000 ng·h/mL; half-life ([21]; mouse, blood, po, 100 mg/kg, T 1/2, 100 mg/kg p.o.): 102 min; total recovery ratio relative to BMY-28100 and cefaclor ([22]; p.o.): smaller than those of BMY-28100 and cefaclor; rate of excretion relative to BMY-28100 and cefaclor ([22]; p.o., from the 6-24 hours period): slower than BMY-28100 and cefaclor; dose excreted at 2 h ([22]; mouse, urine, po, 0-2 hr): 37%; dose excreted at 4 h ([22]; mouse, urine, po, 2-4 hr): 4.4%; dose excreted at 6 h ([22]; mouse, urine, po, 4-6 hr): 0.4%; dose excreted at 24 h ([22]; mouse, urine, po, p.o., 6-24 hr, read-out: Mouse urinary recovery 6-24 hr): 8.7%; dose excreted at 24 h ([22]; mouse, urine, po, p.o., total, read-out: Mouse urinary recovery Total): 51%; MIC [23]: 0.4 µg/mL (≈ 1.03 µM); MIC [24]: 0.4 µg/mL (≈ 1.03 µM); MIC [25]: 0.8 µg/mL (≈ 2.05 µM); MIC [26]: 0.1 µg/mL (≈ 0.257 µM)
